Columns and labels:
Assay in all cases: in vitro susceptibility, MIC by mini broth dilution
Format in all cases: cell-based
[1] = system: Pasteurella multocida CVCC399; conditions: strain CVCC399
How it was run: (§1)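 Read-out is the minimum inhibitory concentration, measured by mini broth dilution following the US NCCLS approved standard, with 11 two-fold compound dilutions in DMSO and a 1:200-diluted inoculum.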

[2] = system: Streptococcus equines CVCC556; conditions: strain CVCC556
How it was run: as §1

Haemophilus parasuis = system: Haemophilus parasuis
How it was run: as §1

[3] = system: Actinobacillus pleuropneumoniae CVCC262; conditions: strain CVCC262
How it was run: as §1

[4] = system: Staphylococcus aureus CVCC26003; conditions: strain CVCC26003
How it was run: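 S. aureus CVCC26003 was revived and subcultured twice, 20 h each at 35° C, on solid medium, then diluted 1:200 in CAMHB liquid medium. Compounds received an 11-step two-fold DMSO dilution in parallel duplicate rows. MIC was read by mini broth dilution per NCCLS guidance.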

| SMILES | MIC values, Pasteurella multocida CVCC399 [1] [ug/mi] | MIC values, Streptococcus equines CVCC556 [2] [ug/mi] | MIC values, Haemophilus parasuis (Haemophilus parasuis) [ug/mi] | MIC values, Actinobacillus pleuropneumoniae CVCC262 [3] [ug/mi] | MIC values, Staphylococcus aureus CVCC26003 [4] [ug/mi] |
| --- | --- | --- | --- | --- | --- |
| CCCN1C[C@H](C)[C@@H](O)[C@](C)(O)[C@@H](CC)OC(=O)[C@H](C)[C@@H](O[C@H]2C[C@@](C)(OC)[C@](O)(CNC(C)CCCN(CC)CC)[C@H](C)O2)[C@H](C)[C@@H](O[C@@H]2O[C@H](C)C[C@H](N(C)C)[C@H]2O)[C@](C)(O)C[C@H]1C (stereo partly shown) [syzx-159] | 0.5 | 0.25 | 0.25 | 0.25 | 0.5 |
| CCCN1C[C@H](C)[C@@H](O)[C@](C)(O)[C@@H](CC)OC(=O)[C@H](C)[C@@H](O[C@H]2C[C@@](C)(OC)[C@](O)(CN(C)CCO)[C@H](C)O2)[C@H](C)[C@@H](O[C@@H]2O[C@H](C)C[C@H](N(C)C)[C@H]2O)[C@](C)(O)C[C@H]1C [syzx-239] | 8 | 0.25 | 2 | 4 | 4 |
| CCC1OC(=O)C(C)C(OC2CC(C)(OC)C(O)(CNc3cc(C)ccc3F)C(C)O2)C(C)C(OC2OC(C)CC(N(C)C)C2O)C(C)(O)CC(C)NCC(C)C(O)C1(C)O [syzx-96, (2R,3S,4R,5S,8R,10R,11R,12S,13S,14R)-13-[(2,6-dideoxy-3-C-methyl-3-O-methyl-4-C-[(2-fluoro-5-methylphenyl-amino)-methyl]-α-L-ribopyranosyl)oxy]-2-ethyl-3,4,10-trihydroxy-3,5,8,10,12,14-hexamethyl-11-[[3,4,6-trideoxy-3-(dimethylamino)-β-D-xylo-hexopyranosy]oxy]-1-oxa-7-azacyclopentadecan-15-one] | 2 | 0.25 | 0.5 | 0.5 | 1 |
| CCCN1C[C@H](C)[C@@H](O)[C@](C)(O)[C@@H](CC)OC(=O)[C@H](C)[C@@H](O[C@H]2C[C@@](C)(OC)[C@](O)(CNN3CCOCC3)[C@H](C)O2)[C@H](C)[C@@H](O[C@@H]2O[C@H](C)C[C@H](N(C)C)[C@H]2O)[C@](C)(O)C[C@H]1C [syzx-148] | 1 | 0.25 | 0.5 | 0.5 | 0.25 |
| CC[C@H]1OC(=O)[C@H](C)[C@@H](O[C@H]2C[C@@](C)(OC)[C@](O)(CNCCc3c[nH]c4ccccc34)[C@H](C)O2)[C@H](C)[C@@H](O[C@@H]2O[C@H](C)C[C@H](N(C)C)[C@H]2O)[C@](C)(O)C[C@@H](C)NC[C@H](C)[C@@H](O)[C@]1(C)O [syzx-74, (2R,3S,4R,5S,8R,10R,11R,12S,13S,14R)-13-[(2,6-dideoxy-3-C-methyl-3-O-methyl-4-C-{[2-(1H-indol-3-yl)-ethylamino]-methyl}-α-L-ribopyranosyl)oxy]-2-ethyl-3,4,10-trihydroxy-3,5,8,10,12,14-hexamethyl-11-[[3,4,6-trideoxy-3-(dimethylamino)-β-D-xylo-hexopyranosy]oxy]-1-oxa-7-azacyclopentadecan-15-one] | 1 | 0.5 | 2 | 1 | 1 |
| CC[C@H]1OC(=O)[C@H](C)[C@@H](O[C@H]2C[C@@](C)(OC)[C@](O)(CNCCN3CCCC3)[C@H](C)O2)[C@H](C)[C@@H](O[C@@H]2O[C@H](C)C[C@H](N(C)C)[C@H]2O)[C@](C)(O)C[C@@H](C)NC[C@H](C)[C@@H](O)[C@]1(C)O [syzx-90] | 2 | 0.5 | 2 | 0.5 | 2 |
| CCCCNC[C@]1(O)[C@H](C)O[C@@H](O[C@H]2[C@H](C)[C@@H](O[C@@H]3O[C@H](C)C[C@H](N(C)C)[C@H]3O)[C@](C)(O)C[C@@H](C)N(CCC)C[C@H](C)[C@@H](O)[C@](C)(O)[C@@H](CC)OC(=O)[C@@H]2C)C[C@@]1(C)OC [syzx-102] | 0.5 | 0.25 | 0.25 | 0.25 | 0.25 |
| CCCN1C[C@H](C)[C@@H](O)[C@](C)(O)[C@@H](CC)OC(=O)[C@H](C)[C@@H](O[C@H]2C[C@@](C)(OC)[C@](O)(CNc3ccc(OC)cc3)[C@H](C)O2)[C@H](C)[C@@H](O[C@@H]2O[C@H](C)C[C@H](N(C)C)[C@H]2O)[C@](C)(O)C[C@H]1C [syzx-183] | 2 | 0.25 | 0.25 | 0.5 | 0.25 |
| CCC1OC(=O)C(C)C(OC2CC(C)(OC)C(O)(CNCCCNC3CCCCC3)C(C)O2)C(C)C(OC2OC(C)CC(N(C)C)C2O)C(C)(O)CC(C)NCC(C)C(O)C1(C)O [syzx-60, (2R,3S,4R,5S,8R,10R,11R,12S,13S,14R)-13-[(2,6-dideoxy-3-C-methyl-3-O-methyl-4-C-[[(3-cyclohexylamino)propylamino]-methyl]-α-L-ribopyranosyl)oxy]-2-ethyl-3,4,10-trihydroxy-3,5,8,10,12,14-hexamethyl-11-[[3,4,6-trideoxy-3-(dimethylamino)-β-D-xylo-hexopyranosy]oxy]-1-oxa-7-azacyclopentadecan-15-one] | 2 | 2 | 1 | 8 | 1 |
| CCCN1C[C@H](C)[C@@H](O)[C@](C)(O)[C@@H](CC)OC(=O)[C@H](C)[C@@H](O[C@H]2C[C@@](C)(OC)[C@](O)(CNCCCOCC)[C@H](C)O2)[C@H](C)[C@@H](O[C@@H]2O[C@H](C)C[C@H](N(C)C)[C@H]2O)[C@](C)(O)C[C@H]1C [syzx-122] | 1 | 0.25 | 0.5 | 1 | 1 |
| C#CC=C(C)NC[C@]1(O)[C@H](C)O[C@@H](O[C@H]2[C@H](C)[C@@H](O[C@@H]3O[C@H](C)C[C@H](N(C)C)[C@H]3O)[C@](C)(O)C[C@@H](C)N(CCC)C[C@H](C)[C@@H](O)[C@](C)(O)[C@@H](CC)OC(=O)[C@@H]2C)C[C@@]1(C)OC [syzx-162] | 1 | 0.25 | 0.25 | 0.25 | 0.25 |
| CCCN1C[C@H](C)[C@@H](O)[C@](C)(O)[C@@H](CC)OC(=O)[C@H](C)[C@@H](O[C@H]2C[C@@](C)(OC)[C@](O)(CNN3CCCCC3)[C@H](C)O2)[C@H](C)[C@@H](O[C@@H]2O[C@H](C)C[C@H](N(C)C)[C@H]2O)[C@](C)(O)C[C@H]1C [syzx-206] | 0.5 | 0.25 | 0.25 | 0.25 | 0.5 |
| CCCN1C[C@H](C)[C@@H](O)[C@](C)(O)[C@@H](CC)OC(=O)[C@H](C)[C@@H](O[C@H]2C[C@@](C)(OC)[C@](O)(CNc3ccc(I)cc3)[C@H](C)O2)[C@H](C)[C@@H](O[C@@H]2O[C@H](C)C[C@H](N(C)C)[C@H]2O)[C@](C)(O)C[C@H]1C [syzx-227] | 8 | 0.5 | 4 | 4 | 2 |
| CC[C@H]1OC(=O)[C@H](C)[C@@H](O[C@H]2C[C@@](C)(OC)[C@](O)(CNc3ccc(Cl)cc3C)[C@H](C)O2)[C@H](C)[C@@H](O[C@@H]2O[C@H](C)C[C@H](N(C)C)[C@H]2O)[C@](C)(O)C[C@@H](C)NC[C@H](C)[C@@H](O)[C@]1(C)O [syzx-97, (2R,3S,4R,5S,8R,10R,11R,12S,13S,14R)-13-[(2,6-dideoxy-3-C-methyl-3-O-methyl-4-C-[(2-methyl-4-chloro-phenyl-amino)-methyl]-α-L-ribopyranosyl)oxy]-2-ethyl-3,4,10-trihydroxy-3,5,8,10,12,14-hexamethyl-11-[[3,4,6-trideoxy-3-(dimethylamino)-β-D-xylo-hexopyranosy]oxy]-1-oxa-7-azacyclopentadecan-15-one] | 4 | 0.5 | 1 | 128 | 1 |
